In the test the target is T1, BTK (Homo sapiens, UniProt Q06187).
T1 construct: endogenous in cells; host or cells: Ramos (ATCC CRL-1596)
T1 sequence (Q06187 whole entry): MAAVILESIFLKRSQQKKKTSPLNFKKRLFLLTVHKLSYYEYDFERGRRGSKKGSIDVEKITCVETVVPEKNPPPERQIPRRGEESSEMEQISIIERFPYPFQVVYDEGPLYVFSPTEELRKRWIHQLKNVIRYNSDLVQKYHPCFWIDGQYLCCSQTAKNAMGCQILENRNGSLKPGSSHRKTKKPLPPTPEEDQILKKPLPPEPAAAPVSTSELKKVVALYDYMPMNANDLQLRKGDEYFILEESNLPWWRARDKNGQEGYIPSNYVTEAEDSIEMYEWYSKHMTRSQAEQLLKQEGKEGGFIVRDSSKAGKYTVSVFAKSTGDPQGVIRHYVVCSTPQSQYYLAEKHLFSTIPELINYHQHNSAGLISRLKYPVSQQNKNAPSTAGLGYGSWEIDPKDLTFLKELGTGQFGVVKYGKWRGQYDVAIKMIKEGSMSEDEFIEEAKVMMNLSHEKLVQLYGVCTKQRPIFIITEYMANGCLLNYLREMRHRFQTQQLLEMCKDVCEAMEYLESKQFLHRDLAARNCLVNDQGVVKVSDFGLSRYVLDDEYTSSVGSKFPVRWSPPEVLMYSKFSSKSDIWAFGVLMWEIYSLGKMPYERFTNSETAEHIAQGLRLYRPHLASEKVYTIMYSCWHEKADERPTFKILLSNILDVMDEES
Kind of test: Cellular BTK HTRF Assay (BTK levels in Ramos cells). The note with it: Ramos cells, 50,000 cells, incubated four hours at 37° C.; BTK levels by Cisbio Total-BTK HTRF relative to DMSO-treated cells. In kind it is cell-based. The protocol: Ramos (CRL-1596) cells were obtained from American Type Culture Collection and were grown in RPMI-1640 media (ATCC, 30-2001) supplemented with 10% heat-inactivated FBS (Corning Premium Fetal Bovine Serum from Fisher, MT35015CV).
Compounds of the present invention were added to 50,000 Ramos cells in round-bottom 96 well plates with a final DMSO concentration of […] and were incubated at 37° C. 5% CO2 for four hours. BTK levels were determined using Cisbio Total-BTK HTRF ([…] Time-Resolved Fluorescence) kit (63ADK064PEG) according to manufacturer's protocol. Briefly, cells were incubated in 1× supplied lysis buffer for 30 minutes. In an opaque white low volume 96 well plate (Cisbio, 66PL96005), cell lysate was combined with two different specific BTK antibodies, one conjugated with Eu^3+-Cryptate FRET donor and one conjugated with d2 FRET acceptor. Assay controls include wells containing cell lysate with only the Eu^3+-Cryptate FRET donor antibody and wells containing both HTRF antibodies and lysis buffer without cells or control lysate provided by Cisbio. HTRF ratio was calculated as (acceptor signal at 665 nm/donor signal at 620 nm)×10^4. Background HTRF levels were determined from the control well containing the donor, but no acceptor, antibody. Background HTRF levels were subtracted from all samples. Readouts were reported as HTRF levels relative to HTRF levels of DMSO-treated cells. Four-parameter non-linear regressions were performed in GraphPad Prism 7.02 to obtain DC50 values. DC50 values are provided in Table 7, wherein A<1 nM, 1 nM≤B≤10 nM, and 10 nM<C<1 μM.
`CN[C@@H](C)C(=O)N[C@H](C(=O)N1CCC[C@H]1c1nc(C(=O)c2cccc(OCCOCCOCCOCCC(=O)N3CCn4nc(Nc5cc(-c6ccnc(-n7ncc8cc(C(C)(C)C)cc(F)c8c7=O)c6CO)cn(C)c5=O)cc4C3)c2)cs1)C1CCCCC1` (stereo in doubt) [Compound 7, (S)—N—((S)-2-((S)-2-(4-(3-(2-(2-(2-(3-(2-((2′-(6-(tert-butyl)-8-fluoro-1-oxophthalazin-2(1H)-yl)-3′-(hydroxymethyl)-1-methyl-6-oxo-1,6-dihydro-[3,4′-bipyridin]-5-yl)amino)-6,7-dihydropyrazolo[1,5-a]pyrazin-5(4H)-yl)-3-oxopropoxy)ethoxy)ethoxy)ethoxy)benzoyl)thiazol-2-yl)pyrrolidin-1-yl)-1-cyclohexyl-2-oxoethyl)-2-(methylamino)propanamide] yielded a DC50 of 10 to 1000 nM.

In turn, `Cn1cc(-c2ccnc(-n3ncc4cc(C(C)(C)C)cc(F)c4c3=O)c2CO)cc(Nc2cc3n(n2)CCN(C(=O)CCOCCNc2cccc4c2C(=O)N(C2CCC(=O)NC2=O)C4=O)C3)c1=O` (stereo not drawn) [Compound 1] came in with a DC50 of 1 to 10 nM. On to `Cn1cc(-c2ccnc(-n3ncc4cc(C(C)(C)C)cc(F)c4c3=O)c2CO)cc(Nc2cc3n(n2)CCN(C(=O)CCOCCCc2cccc4c2CN(C2CCC(=O)NC2=O)C4=O)C3)c1=O` (stereo not drawn) [Compound 2], for which the DC50 was 10 to 1000 nM.

Regarding `Cn1cc(-c2ccnc(-n3ncc4cc(C(C)(C)C)cc(F)c4c3=O)c2CO)cc(Nc2cc3n(n2)CCN(C(=O)CCOCCOCCOCCNc2cccc4c2C(=O)N(C2CCC(=O)NC2=O)C4=O)C3)c1=O` (stereo not drawn) [Compound 3], the DC50 fell in the range of 1 to 10 nM. `CN[C@@H](C)C(=O)N[C@H](C(=O)N1C[C@@H](NC(=O)CCOCCC(=O)N2CCn3nc(Nc4cc(-c5ccnc(-n6ncc7cc(C(C)(C)C)cc(F)c7c6=O)c5CO)cn(C)c4=O)cc3C2)C[C@H]1C(=O)N[C@@H]1CCCc2ccccc21)C1CCCCC1` [Compound 4, (2S,4S)-4-(3-(3-(2-((2′-(6-(tert-butyl)-8-fluoro-1-oxophthalazin-2(1H)-yl)-3′-(hydroxymethyl)-1-methyl-6-oxo-1,6-dihydro-[3,4′-bipyridin]-5-yl)amino)-6,7-dihydropyrazolo[1,5-a]pyrazin-5(4H)-yl)-3-oxopropoxy)propanamido)-1-((S)-2-cyclohexyl-2-((S)-2-(methylamino)propanamido)acetyl)—N—((R)-1,2,3,4-tetrahydronaphthalen-1-yl)pyrrolidine-2-carboxamide]: the DC50 is 10 to 1000 nM. Consider `CN[C@@H](C)C(=O)N[C@H](C(=O)N1C[C@@H](NC(=O)CCOCCOCCOCCC(=O)N2CCn3nc(Nc4cc(-c5ccnc(-n6ncc7cc(C(C)(C)C)cc(F)c7c6=O)c5CO)cn(C)c4=O)cc3C2)C[C@H]1C(=O)N[C@@H]1CCCc2ccccc21)C1CCCCC1` [Compound 5, (2S,4S)-4-(3-(2-(2-(3-(2-((2′-(6-(tert-butyl)-8-fluoro-1-oxophthalazin-2(1H)-yl)-3′-(hydroxymethyl)-1-methyl-6-oxo-1,6-dihydro-[3,4′-bipyridin]-5-yl)amino)-6,7-dihydropyrazolo[1,5-a]pyrazin-5(4H)-yl)-3-oxopropoxy)ethoxy)ethoxy)propanamido)-1-((S)-2-cyclohexyl-2-((S)-2-(methylamino)propanamido)acetyl)—N—((R)-1,2,3,4-tetrahydronaphthalen-1-yl)pyrrolidine-2-carboxamide], for which the DC50 is 10 to 1000 nM. Consider `CN[C@@H](C)C(=O)N[C@H](C(=O)N1CCC[C@H]1c1nc(C(=O)c2cccc(OCCOCCC(=O)N3CCn4nc(Nc5cc(-c6ccnc(-n7ncc8cc(C(C)(C)C)cc(F)c8c7=O)c6CO)cn(C)c5=O)cc4C3)c2)cs1)C1CCCCC1` [Compound 6, (S)—N—((S)-2-((S)-2-(4-(3-(2-(3-(2-((2′-(6-(tert-butyl)-8-fluoro-1-oxophthalazin-2(1H)-yl)-3′-(hydroxymethyl)-1-methyl-6-oxo-1,6-dihydro-[3,4′-bipyridin]-5-yl)amino)-6,7-dihydropyrazolo[1,5-a]pyrazin-5(4H)-yl)-3-oxopropoxy)ethoxy)benzoyl)thiazol-2-yl)pyrrolidin-1-yl)-1-cyclohexyl-2-oxoethyl)-2-(methylamino)propanamide], for which the DC50 was in the range of 10 to 1000 nM. `Cn1cc(-c2ccnc(-n3ncc4cc(C(C)(C)C)cc(F)c4c3=O)c2CO)cc(Nc2cc3n(n2)CCN(C(=O)CCCNc2cccc4c2C(=O)N(C2CCC(=O)NC2=O)C4=O)C3)c1=O` (stereo not drawn) [Compound 9] showed a DC50 of 1 to 10 nM. Regarding `Cn1cc(-c2ccnc(-n3ncc4cc(C(C)(C)C)cc(F)c4c3=O)c2CO)cc(Nc2cc3n(n2)CCN(C(=O)CCNc2cccc4c2C(=O)N(C2CCC(=O)NC2=O)C4=O)C3)c1=O` (stereo not drawn) [Compound 10], the DC50 was in the range of 10 to 1000 nM. Turning to `Cn1cc(-c2ccnc(-n3ncc4cc(C(C)(C)C)cc(F)c4c3=O)c2CO)cc(Nc2cc3n(n2)CCN(C(=O)CCCCc2cccc4c2CN(C2CCC(=O)NC2=O)C4=O)C3)c1=O` (stereo not drawn) [Compound 11], the DC50 was 1 to 10 nM. In the case of `Cn1cc(-c2ccnc(-n3ncc4cc(C(C)(C)C)cc(F)c4c3=O)c2CO)cc(Nc2cc3n(n2)CCN(C(=O)CNc2cccc4c2C(=O)N(C2CCC(=O)NC2=O)C4=O)C3)c1=O` (stereo not drawn) [Compound 12] it was 1 to 10 nM; in that of `Cn1cc(-c2ccnc(-n3ncc4cc(C(C)(C)C)cc(F)c4c3=O)c2CO)cc(Nc2cc3n(n2)CCN(C(=O)CCCc2cccc4c2CN(C2CCC(=O)NC2=O)C4=O)C3)c1=O` (stereo not drawn) [Compound 13], 10 to 1000 nM; in that of `Cn1cc(-c2ccnc(-n3ncc4cc(C(C)(C)C)cc(F)c4c3=O)c2CO)cc(Nc2cc3n(n2)CCN(C(=O)CN2CCN(CCCc4cccc5c4C(=O)N(C4CCC(=O)NC4=O)C5=O)CC2)C3)c1=O` (stereo not drawn) [Compound 14], 1 to 10 nM. In the case of `Cn1cc(-c2ccnc(-n3ncc4cc(C(C)(C)C)cc(F)c4c3=O)c2CO)cc(Nc2cc3n(n2)CCN(C(=O)[C@H]2CC[C@H](Nc4cccc5c4C(=O)N(C4CCC(=O)NC4=O)C5=O)CC2)C3)c1=O` (stereo partly drawn) [Compound 15] it was 1 to 10 nM; in that of `Cn1cc(-c2ccnc(-n3ncc4cc(C(C)(C)C)cc(F)c4c3=O)c2CO)cc(Nc2cc3n(n2)CCN(C(=O)CN2CCN(CCCc4cccc5c4CN(C4CCC(=O)NC4=O)C5=O)CC2)C3)c1=O` (stereo not drawn) [Compound 16], 10 to 1000 nM. In turn, `Cn1cc(-c2ccnc(-n3ncc4cc(C(C)(C)C)cc(F)c4c3=O)c2CO)cc(Nc2cc3n(n2)CCN(C(=O)[C@H]2C[C@@H](OCCCc4cccc5c4CN(C4CCC(=O)NC4=O)C5=O)C2)C3)c1=O` (stereo partly drawn) [Compound 17] yielded a DC50 of 10 to 1000 nM. In turn, `Cn1cc(-c2ccnc(-n3ncc4cc(C(C)(C)C)cc(F)c4c3=O)c2CO)cc(Nc2cc3n(n2)CCN(CCCCc2cccc4c2CN(C2CCC(=O)NC2=O)C4=O)C3)c1=O` (stereo not drawn) [Compound 18] displayed a DC50 of 1 to 10 nM.

As to `Cn1cc(-c2ccnc(-n3ncc4cc(C(C)(C)C)cc(F)c4c3=O)c2CO)cc(Nc2cc3n(n2)CCN(CCCCCCc2cccc4c2CN(C2CCC(=O)NC2=O)C4=O)C3)c1=O` (stereo not drawn) [Compound 19], the DC50 was 1 to 10 nM. For `Cn1cc(-c2ccnc(-n3ncc4cc(C(C)(C)C)cc(F)c4c3=O)c2CO)cc(Nc2cc3n(n2)CCN(CCCc2cccc4c2CN(C2CCC(=O)NC2=O)C4=O)C3)c1=O` (stereo not drawn) [Compound 20] the value was 1 to 10 nM; for `Cn1cc(-c2ccnc(-n3ncc4cc(C(C)(C)C)cc(F)c4c3=O)c2CO)cc(Nc2cc3n(n2)CCN(C(=O)CCOCCCc2cccc4c2C(=O)N(C2CCC(=O)NC2=O)C4=O)C3)c1=O` (stereo not drawn) [Compound 21], 10 to 1000 nM; for `Cn1cc(-c2ccnc(-n3ncc4cc(C(C)(C)C)cc(F)c4c3=O)c2CO)cc(Nc2cc3n(n2)CCN(C(=O)CN2CCN(CCc4cccc5c4CN(C4CCC(=O)NC4=O)C5=O)CC2)C3)c1=O` (stereo not drawn) [Compound 22], 10 to 1000 nM. For `Cn1cc(-c2ccnc(-n3ncc4cc(C(C)(C)C)cc(F)c4c3=O)c2CO)cc(Nc2cc3n(n2)CCN(C(=O)CCCN2CCN(c4cc5c(cc4F)C(=O)N(C4CCC(=O)NC4=O)C5=O)CC2)C3)c1=O` (stereo not drawn) [Compound 23], the DC50 lay within 1 to 10 nM.

Turning to `Cn1cc(-c2ccnc(-n3ccc4cc(C5CC5)cc(F)c4c3=O)c2CO)cc(Nc2cc3n(n2)CCN(C(=O)CCOCCCc2ccc4c(c2)C(=O)N(C2CCC(=O)NC2=O)C4=O)C3)c1=O` (stereo not drawn) [Compound 24], the DC50 is 1 to 10 nM. Regarding `C[C@H]1CN(C(=O)[C@H]2C[C@@H](OCCNc3cccc4c3C(=O)N(C3CCC(=O)NC3=O)C4=O)C2)CCN1c1ccc(Nc2cc(-c3ccnc(N4CCn5c(cc6c5CC(C)(C)C6)C4=O)c3CO)cn(C)c2=O)nc1` (stereo partly drawn) [Compound 25], the DC50 is below 1 nM. Molecule `C[C@H]1CN(C(=O)CN2CCN(CCc3cccc4c3CN(C3CCC(=O)NC3=O)C4=O)CC2)CCN1c1ccc(Nc2cc(-c3ccnc(N4CCn5c(cc6c5CC(C)(C)C6)C4=O)c3CO)cn(C)c2=O)nc1` (stereo partly drawn) [Compound 26] registered a DC50 of 1 to 10 nM. `C[C@H]1CN(C(=O)CN2CCN(Cc3cccc4c3CN(C3CCC(=O)NC3=O)C4=O)CC2)CCN1c1ccc(Nc2cc(-c3ccnc(N4CCn5c(cc6c5CC(C)(C)C6)C4=O)c3CO)cn(C)c2=O)nc1` (stereo partly drawn) [Compound 27] yielded a DC50 of 10 to 1000 nM.

`C[C@H]1CN(C(=O)CCOCCCc2cccc3c2C(=O)N(C2CCC(=O)NC2=O)C3=O)CCN1c1ccc(Nc2cc(-c3ccnc(N4CCn5c(cc6c5CC(C)(C)C6)C4=O)c3CO)cn(C)c2=O)nc1` (stereo partly drawn) [Compound 28] showed a DC50 of 1 to 10 nM.

Values taken from patent US20230024442A1, “BIFUNCTIONAL COMPOUNDS FOR GRADING BTK VIA UBIQUITIN PROTEOSOME PATHWAY” (NURIX THERAPEUTICS, INC., priority 2019, published 2023).
